Measured values as given in patent US20080009540A1, “Amorphous Atorvastatin Calcium” (priority 2004, published 2008).
Where a name gives a salt, the structure may show the parent alone.

Key:
Format in all cases: physicochemical
[1] = Storage stability of commercial-sized batch of amorphous atorvastatin calcium, Example 8 packaging
Excerpt: A commercial-sized batch of amorphous atorvastatin calcium was packaged as follows:
a) amorphous atorvastatin calcium having a 6 percent w/w water content was initially placed into a clear polyethylene bag, air was removed, and the clear polyethylene bag was tied;
b) the tied clear polyethylene bag was placed into a black polyethylene bag along with a silica gel pouch and a package of oxygen absorbent, and then the black polyethylene bag was purged with nitrogen and sealed; and
c) the sealed black polyethylene bag was placed in a triple laminated bag along with a silica gel pouch, then the laminated bag was purged with nitrogen and sealed.

[2] = Storage stability of amorphous atorvastatin calcium, Example 7 packaging (2 percent w/w moisture; nitrogen, silica gel, oxygen absorbent)
Excerpt: The following packaging procedure was followed: 1) amorphous atorvastatin calcium having a 2 percent w/w moisture content was placed in a white polyethylene bag, the bag was purged with nitrogen, and then the bag was tied; 2) the tied white polyethylene bag was placed into a black polyethylene bag, along with a silica gel pouch and a bag of oxygen absorbent, then the black bag was purged with nitrogen and sealed; 3) the sealed black polyethylene bag was placed into a triple laminated bag along with a silica gel pouch, and then the laminated bag was purged with nitrogen and sealed; and 4) the sealed laminated bag was stored in a HDPE drum.

[3] = Storage stability of amorphous atorvastatin calcium, Example 6 packaging (6 percent w/w water; nitrogen, silica gel)
Excerpt: The following packaging procedure was followed: 1) amorphous atorvastatin calcium having a 6 percent w/w water content was initially packed in a polyethylene bag, which was then tied; 2) the tied polyethylene bag was placed in a black polyethylene bag with a silica gel pouch under a nitrogen atmosphere and then sealed; 3) the sealed black polyethylene bag was placed in a triple laminated bag along with a silica gel pouch, was purged with nitrogen, and sealed; and 4) the sealed laminated bag was stored in a HDPE drum.
table, where water was determined by the Karl Fischer method, and total organic impurities are expressed as area-percent, as determined by high performance liquid chromatography.

[4] = 25° C. and 60% relative humidity, 1 Month
[5] = 25° C. and 60% relative humidity, 2 Month
[6] = 25° C. and 60% relative humidity, 3 Month
[7] = 25° C. and 60% relative humidity, Initial
[8] = 40° C. and 75% relative humidity, 1 Month
[9] = 40° C. and 75% relative humidity, 2 Month
[10] = 40° C. and 75% relative humidity, 3 Month
[11] = 40° C. and 75% relative humidity, 15 Days
[12] = 40° C. and 75% relative humidity, 45 Days
[13] = 40° C. and 75% relative humidity, Initial
[14] = 25° C. and 60% relative humidity, 2 Months
[15] = 40° C. and 75% relative humidity, 2 Months
[16] = all three storage conditions, up to 2 Months
[17] = 25° C. and 60% relative humidity, 45 Days

CC(C)c1c(C(=O)Nc2ccccc2)c(-c2ccccc2)c(-c2ccc(F)cc2)n1CC[C@@H](O)C[C@@H](O)CC(=O)O (relative stereo) [amorphous atorvastatin calcium, [R-(R*,R*)]-2-(4-fluorophenyl)-β,δ-dihydroxy-5-(1-methylethyl)-3-phenyl-4-[(phenylamino)carbonyl]-1H-pyrrole-1-heptanoic acid, calcium salt (2:1)]
Total Impurities ([1]; 2 to 8° C., 1 Month): 0.37 area-percent
Wt. Percent H2O ([1]; 2 to 8° C., 1 Month): 5.4 Wt. Percent
Total Impurities ([1]; 2 to 8° C., 2 Month): 0.36 area-percent
Wt. Percent H2O ([1]; 2 to 8° C., 2 Month): 5.3 Wt. Percent
Total Impurities ([1]; 2 to 8° C., 3 Month): 0.34 area-percent
Wt. Percent H2O ([1]; 2 to 8° C., 3 Month): 5.4 Wt. Percent
Total Impurities ([1]; 2 to 8° C., Initial): 0.35 area-percent
Wt. Percent H2O ([1]; 2 to 8° C., Initial): 5.4 Wt. Percent
Total Impurities [1, 4]: 0.41 area-percent
Wt. Percent H2O [1, 4]: 4.6 Wt. Percent
Total Impurities [1, 5]: 0.42 area-percent
Wt. Percent H2O [1, 5]: 4.8 Wt. Percent
Total Impurities [1, 6]: 0.40 area-percent
Wt. Percent H2O [1, 6]: 4.9 Wt. Percent
Total Impurities [1, 7]: 0.35 area-percent
Wt. Percent H2O [1, 7]: 5.4 Wt. Percent
Total Impurities [1, 8]: 0.45 area-percent
Wt. Percent H2O [1, 8]: 4.3 Wt. Percent
Total Impurities [1, 9]: 0.47 area-percent
Wt. Percent H2O [1, 9]: 4.5 Wt. Percent
Total Impurities [1, 10]: 0.48 area-percent
Wt. Percent H2O [1, 10]: 5.0 Wt. Percent
Total Impurities [1, 11]: 0.39 area-percent
Wt. Percent H2O [1, 11]: 4.8 Wt. Percent
Total Impurities [1, 12]: 0.45 area-percent
Wt. Percent H2O [1, 12]: 4.3 Wt. Percent
Total Impurities [1, 13]: 0.35 area-percent
Wt. Percent H2O [1, 13]: 5.4 Wt. Percent
Change during the storage periods ([1]; all three storage conditions, up to 3 Month): did not change appreciably
Total Impurities ([2]; 2 to 8° C., 1 Month): 0.27 area-percent
Wt. Percent H2O ([2]; 2 to 8° C., 1 Month): 2.3 Wt. Percent
Total Impurities ([2]; 2 to 8° C., 2 Months): 0.30 area-percent
Wt. Percent H2O ([2]; 2 to 8° C., 2 Months): 2.6 Wt. Percent
Total Impurities ([2]; 2 to 8° C., Initial): 0.29 area-percent
Wt. Percent H2O ([2]; 2 to 8° C., Initial): 2.0 Wt. Percent
Total Impurities [2, 4]: 0.34 area-percent
Wt. Percent H2O [2, 4]: 2.4 Wt. Percent
Total Impurities [2, 14]: 0.38 area-percent
Wt. Percent H2O [2, 14]: 2.9 Wt. Percent
Total Impurities [2, 7]: 0.29 area-percent
Wt. Percent H2O [2, 7]: 2.0 Wt. Percent
Total Impurities [2, 8]: 0.41 area-percent
Wt. Percent H2O [2, 8]: 3.4 Wt. Percent
Total Impurities [2, 15]: 0.40 area-percent
Wt. Percent H2O [2, 15]: 3.2 Wt. Percent
Total Impurities [2, 11]: 0.34 area-percent
Wt. Percent H2O [2, 11]: 3.1 Wt. Percent
Total Impurities [2, 12]: 0.34 area-percent
Wt. Percent H2O [2, 12]: 3.2 Wt. Percent
Total Impurities [2, 13]: 0.29 area-percent
Wt. Percent H2O [2, 13]: 2.0 Wt. Percent
Change during the storage periods [2, 16]: did not change appreciably
Total Impurities ([3]; 2 to 8° C., 2 Months): 0.47 area-percent
Wt. Percent H2O ([3]; 2 to 8° C., 2 Months): 4.80 Wt. Percent
Total Impurities ([3]; 2 to 8° C., 45 Days): 0.46 area-percent
Wt. Percent H2O ([3]; 2 to 8° C., 45 Days): 4.50 Wt. Percent
Total Impurities ([3]; 2 to 8° C., Initial): 0.37 area-percent
Wt. Percent H2O ([3]; 2 to 8° C., Initial): 6.00 Wt. Percent
Total Impurities [3, 14]: 0.49 area-percent
Wt. Percent H2O [3, 14]: 3.97 Wt. Percent
Total Impurities [3, 17]: 0.51 area-percent
Wt. Percent H2O [3, 17]: 3.70 Wt. Percent
Total Impurities [3, 7]: 0.37 area-percent
Wt. Percent H2O [3, 7]: 6.00 Wt. Percent
Total Impurities [3, 15]: 0.50 area-percent
Wt. Percent H2O [3, 15]: 3.47 Wt. Percent
Total Impurities [3, 12]: 0.61 area-percent
Wt. Percent H2O [3, 12]: 3.49 Wt. Percent
Total Impurities ([3]; 40° C. and 75% relative humidity, Initial, HPLC): 0.37 area-percent
Wt. Percent H2O ([3]; 40° C. and 75% relative humidity, Initial, Karl Fischer): 6.00 Wt. Percent
Change during the storage periods [3, 16]: did not change appreciably
